Test results as given in US6300346A, “Indenyl hydroxamic acids, (hydroxy) ureas and urethanes for treating patients with precancerous lesions” (Cell Pathways, Inc., priority 2000, dated 2001).

How the values were obtained:
[1] = Solubility remark in the HT-29 table; assay type: physicochemical; conditions: printed in the IC50 column of TABLE I
[2] = system: HT-29 human colon carcinoma cells; assay: HT-29 tumor cell growth inhibition / cytotoxicity (Sulforhodamine B Assay); assay type: cell-based; conditions: 168 h, HT-29, seven days continuous exposure
Protocol: (§1) The compounds of this invention were assayed for their effect on the human colon carcinoma cell lines HT-29 and SW-480 obtained from ATCC (Rockville, Md.), representative of precancerous lesions to ascertain the degree of tumor growth inhibition following treatment with compounds of this invention. The cell line employed for these experiments is well characterized, and is used by the United States National Cancer Institute in their screening program for new anticancer drugs. Growth inhibition of this cell line is thought to be indicative of a benefit on precancerous lesions and neoplasms.
Tumor cell cytotoxicity was assessed using the Sulforhodamine B Assay. In this assay, HT-29 tumor cells were plated in 96-well plates and treated with drug-containing media for seven days (continuous exposure). At the end of the exposure period, the cell were fixed and stained with sulforhodamine B (a pink fluorescent dye). The dye was then solubilized, and the optical density of the resulting pink solution determined on a 96-well plate reader. The mean dye intensity of the treated wells was then divided by the mean dye intensity in the control wells (6 wells of each) to determine the effect of the drug on the cells. Dye intensity is proportional to the number of cells or amount of protein per well. The resultant "percent of control" value then represents the degree of growth inhibition caused by the drug.
For each experiment, an IC50 value was determined and used for comparative purposes. This value is equivalent to the concentration of drug needed to inhibit tumor cell growth by 50%. IC50 values were obtained graphically by connecting the mean values for each drug concentration tested. Each experiment included at least six wells per drug concentration. Concentration was plotted on a log scale on the X-axis.

[3] = system: SW-480 colon adenocarcinoma cells; assay: Apoptosis: DNA fragmentation assay (Cell Death Detection ELISA plus); assay type: cell-based; conditions: Homo sapiens, SW480, SW-480, 48 hrs; for EC50: apoptosis
Protocol: as §1
Apoptosis was measured based on the amount of fragmented DNA contained in cell lysates. Briefly, SW-480 colon adenocarcinoma cells were plated at a density of 10K cells/well in 180 μl to 96-well microtitre plates ("MTP"), and incubated for 24 hrs. Cells were then treated with 20 μl aliquots appropriately diluted compound, and allowed to incubate for 48 hrs.
After the incubation, samples were prepared according to the following steps. […] Samples were analyzed immediately, because storage at 4 C or […] reduces the ELISA-signals.
Samples were then processed according to a DNA fragmentation assay protocol, and dose-response curves were generated based on optical density readings. […] The assay is based on a quantitative sandwich-enzyme-immunoassay-principle using mouse monoclonal antibodies directed against DNA and histones, respectively. […]
According to the vendor, the assay works in the following fashion. […] After removal of unbound antibodies by a washing step, the amount of nucleosomes is quantified by the POD retained in the immunocomplex. POD is determined photometrically with ABTS® (2,2'-Azino-di[3-ethylbenzthiazolin-sulfonat])* as substrate.
Fold stimulation (FS=ODmax/ODveh), an indicator of apoptotic response, was determined for each compound data analysis software, or by estimates based on the effective concentration range of each compound (ECR=min. effective dose-min. dose to peak effect).

[4] = sulfoxide itself, believed; cited from earlier work
[5] = system: polyps; conditions: when the patient take the drug; cited from earlier work
[6] = system: prostaglandin synthesis; conditions: acknowledged / regarded; cited from earlier work

With CC1=C(CNC(=O)NC(C)C)c2cc(F)ccc2/C1=C\c1ccc(S(C)(=O)=O)cc1 [Example 21, (Z)-N-{[5-Fluoro-2-methyl-1-(p-methylsulfonylbenzylidene)inden-3-yl]-methyl}-N'-isopropyl urea] the “solubility (reason for IC50 N/A)” value [1] was “not very soluble”.

CC1=C(CNC(=O)NCCCN(C)C)c2cc(F)ccc2/C1=C\c1ccc(S(C)(=O)=O)cc1 [Example 22, (Z)-N-{[5-Fluoro-2-methyl-1-(p-methylsulfonyl-benzylidene)-inden-3-yl]-methyl}-N'-dimethylaminopropyl urea] gave an IC50 [2] of 4.4 to 5.4 µM and an EC50 [3] of 75 µM.

In the case of CC1=C(CNC(=O)NCc2ccccc2)c2cc(F)ccc2/C1=C\c1ccc(S(C)(=O)=O)cc1 [Example 23, (Z)-N-{[5-Fluoro-2-methyl-1-(p-methylsulfonyl-benzylidene)-inden-3-yl]-methyl}-N'-benzyl urea], the IC50 [2] is reported as 1.6 to 3.2 µM.

In the case of CC1=C(CNC(=O)NCC(N)=O)c2cc(F)ccc2/C1=C\c1ccc(S(C)(=O)=O)cc1 [Example 24, (Z)-N-{[5-Fluoro-2-methyl-1-(p-methylsulfonyl-benzylidene)-inden-3-yl]-methyl}-N'-glycinamide urea], the “solubility (reason for IC50 N/A)” value [1] is reported as “not very soluble”.

CC1=C(CNC(=O)OC(C)C)c2cc(F)ccc2/C1=C\c1ccc(S(C)(=O)=O)cc1 [Example 25, (Z)-N-{[5-Fluoro-2-methyl-1-(p-methylsulfonyl-benzylidene)-inden-3-yl]-methyl}-O-isopropyl urethane] showed an IC50 [2] of 3.2 to 4 µM.

Compound COC(=O)NCC1=C(C)/C(=C/c2ccc(S(C)(=O)=O)cc2)c2ccc(F)cc21 [Example 26, (Z)-N-{[5-Fluoro-2-methyl-1-(p-methylsulfonyl-benzylidene)-inden-3-yl]-methyl}-O-methyl urethane] has an IC50 [2] of 4.5 to 8 µM, a maximal fold induction ([3]; FS=ODmax/ODveh, read-out: Fold Stimulation) of 5 to 6.8 and an EC50 [3] of 250 µM.

Work on CCOC(=O)NCC1=C(C)/C(=C/c2ccc(S(C)(=O)=O)cc2)c2ccc(F)cc21 [Example 27, (Z)-N-{[5-Fluoro-2-methyl-1-(p-methylsulfonyl-benzylidene)-inden-3-yl]-methyl}-O-ethyl urethane] yielded an IC50 [2] of 4.1 µM.

With COCCOC(=O)NCC1=C(C)/C(=C/c2ccc(S(C)(=O)=O)cc2)c2ccc(F)cc21 [Example 28, (Z)-N-{[5-Fluoro-2-methyl-1-(p-methylsulfonyl-benzylidene)-inden-3-yl]-methyl}-O-methoxyethyl urethane] the IC50 [2] was 7.1 to 11 µM.

For CC1=C(CC(=O)O)c2cc(F)ccc2/C1=C\c1ccc([S+](C)[O-])cc1 (stereo not drawn) [Sulindac, (Z)-5-fluoro-2-methyl-1-(4-methylsulfinylbenzylidene)inden-3-ylacetic acid], the “activity as an anti-arthritic agent” value [4] is listed as “inactive” and the effect on polyps [5] is listed as “Polyps virtually disappear”.

In the case of CSc1ccc(/C=C2/C(C)=C(CC(=O)O)c3cc(F)ccc32)cc1 [sulfide], the “activity as a prostaglandin (synthesis) inhibitor” value [6] is listed as “active moiety as a prostaglandin inhibitor”.

In the case of CC1=C(CC(=O)O)c2cc(F)ccc2/C1=C\c1ccc(S(C)(=O)=O)cc1 [sulfone], the “activity as a prostaglandin (synthesis) inhibitor” value [6] is given as “inactive”.
